{"source": "ChEMBL document CHEMBL4334495", "about": "“Design and Biological Evaluation of m-Xylene Thioether-Stapled Short Helical Peptides Targeting the HIV-1 gp41 Hexameric Coiled-Coil Fusion Complex” (J Med Chem, 2019)", "key": {"[1]": {"test_system": "Human immunodeficiency virus 1", "assay": "(§1) Ratio of EC50 for antiviral activity against HIV1 NL4-3 infected in human MT2 cells or CEMx174 5.25 M7 cells in absence of HP23 to EC50 for antiviral activity against HIV1 NL4-3 infected in human MT2 cells or CEMx174 5.25 M7 cells at 5:1 compound to HP23 ratio", "type": "functional"}, "[2]": {"assay": "Metabolic stability in rat kidney homogenates assessed as parent compound remaining at 3 to 100 uM after 4 hrs by RP-HPLC analysis", "type": "ADME, tissue-based", "conditions": "read-out: Stability"}, "[3]": {"test_system": "Human immunodeficiency virus 1", "assay": "(§2) Synergistic antiviral activity against T20 resistant HIV1 NL4-3 harboring with V38E/N42T mutant infected in human MT2 cells or CEMx174 5.25 M7 cells assessed as reduction in p24 Gag protein production by measuring combination index at 150:1 compound to HP23 ratio measured at 4 days post-infection by ELISA", "type": "functional"}, "[4]": {"test_system": "Human immunodeficiency virus 1", "assay": "Antiviral activity against T2635 resistant HIV1 LAI harboring Q66R mutant infected in human MT2 cells or CEMx174 5.25 M7 cells assessed as reduction in p24 Gag protein production at 50:1 ratio of compound to HP23 measured at 4 days post infection by ELISA", "type": "functional, organism-based, M:B_Lai"}, "[5]": {"test_system": "Human immunodeficiency virus 1", "assay": "Antiviral activity against HIV1 NL4-3 infected in human MT2 cells or CEMx174 5.25 M7 cells assessed as reduction in p24 Gag protein production at 20:1 compound to HP23 ratio measured at 4 days post-infection by ELISA", "type": "functional, organism-based", "conditions": "Human immunodeficiency virus 1, NL4-3, 96 h"}, "[6]": {"assay": "Metabolic stability in rat liver homogenates assessed as parent compound remaining at 3 to 100 uM after 2 hrs by RP-HPLC analysis", "type": "ADME, tissue-based", "conditions": "read-out: Stability"}, "[7]": {"test_system": "Human immunodeficiency virus 1", "assay": "(§3) Ratio of EC50 for antiviral activity against R5 tropic HIV-1 subtype-B Bal infected in human MT2 cells or CEMx174 5.25 M7 cells in absence of HP23 to EC50 for antiviral activity against R5 tropic HIV-1 subtype-B Bal infected in human MT2 cells or CEMx174 5.25 M7 cells at 24:1 compound to HP23 ratio", "type": "functional, HIV-1 group M"}, "[8]": {"test_system": "Human immunodeficiency virus 1", "assay": "Antiviral activity against X4 tropic HIV-1 subtype-B 3B infected in human MT2 cells or CEMx174 5.25 M7 cells assessed as reduction in p24 Gag protein production at 12:1 compound to HP23 ratio measured at 4 days post-infection by ELISA", "type": "functional, cell-based, HIV-1 group M", "conditions": "Human immunodeficiency virus 1, 3B, 96 h"}, "[9]": {"test_system": "Human immunodeficiency virus 1", "assay": "Antiviral activity against T20 resistant HIV1 NL4-3 harboring with V38E/N42S mutant infected in human MT2 cells or CEMx174 5.25 M7 cells assessed as reduction in p24 Gag protein production at 3500:1 compound to HP23 ratio measured at 4 days post-infection by ELISA", "type": "functional, organism-based"}, "[10]": {"test_system": "Human immunodeficiency virus 1", "assay": "as §1, with “against T2635 resistant” for “against”, “LAI harboring Q66R mutant” for “NL4-3”, “to” for “to EC50 for”, “12.5:1 ratio of” for “5:1”, “HP23” for “HP23 ratio”", "type": "functional, M:B_Lai"}, "[11]": {"test_system": "Human immunodeficiency virus 1", "assay": "Ratio of EC50 for antiviral activity against X4 tropic HIV-1 subtype-B 3B infected in human MT2 cells or CEMx174 5.25 M7 cells in absence of HP23 to EC50 for antiviral activity against X4 tropic HIV-1 subtype-B 3B infected in human MT2 cells or CEMx174 5.25 M7 cells at 6:1 compound to HP23 ratio", "type": "functional, HIV-1 group M"}, "[12]": {"test_system": "Human immunodeficiency virus 1", "assay": "Synergistic antiviral activity against T2635 resistant HIV1 LAI harboring Q66R mutant infected in human MT2 cells or CEMx174 5.25 M7 cells assessed as reduction in p24 Gag protein production by measuring combination index at 12.5:1 compound ratio measured at 4 days post infection by ELISA", "type": "functional, M:B_Lai"}, "[13]": {"test_system": "Human immunodeficiency virus 1", "assay": "Ratio of EC50 for antiviral activity against T20 resistant HIV1 NL4-3 harboring with V38E/N42T mutant infected in human MT2 cells or CEMx174 5.25 M7 cells in absence of HP23 to EC50 for Antiviral activity against T20 resistant HIV1 NL4-3 harboring with V38E/N42T mutant infected in human MT2 cells or CEMx174 5.25 M7 cells at 600:1 compound to HP23 ratio", "type": "functional"}, "[14]": {"test_system": "Human immunodeficiency virus 1", "assay": "as §2, with “V38E/N42S” for “V38E/N42T”, “7000:1” for “150:1”", "type": "functional"}, "[15]": {"test_system": "Human immunodeficiency virus 1", "assay": "Ratio of EC50 for antiviral activity against R5 tropic HIV-1 subtype-B Bal infected in human MT2 cells or CEMx174 5.25 M7 cells in absence of HP23 to EC50 for antiviral activity against R5 tropic HIV-1 subtype-B Bal infected in human MT2 cells or CEMx174 5.25 M7 cells at 12:1 compound to HP23 ratio", "type": "functional, HIV-1 group M"}, "[16]": {"test_system": "Human immunodeficiency virus 1", "assay": "Antiviral activity against T20 resistant HIV1 NL4-3 harboring with V38E/N42S mutant infected in human MT2 cells or CEMx174 5.25 M7 cells assessed as reduction in p24 Gag protein production at 14000:1 hCS6ERE to compound ratio measured at 4 days post-infection by ELISA", "type": "functional, organism-based"}, "[17]": {"test_system": "Human immunodeficiency virus 1", "assay": "Antiviral activity against HIV1 NL4-3 infected in human MT2 cells or CEMx174 5.25 M7 cells assessed as reduction in p24 Gag protein production at 5:1 hCS6ERE to compound ratio measured at 4 days post-infection by ELISA", "type": "functional, organism-based", "conditions": "Human immunodeficiency virus 1, NL4-3, 96 h"}, "[18]": {"test_system": "Human immunodeficiency virus 1", "assay": "Ratio of EC50 for antiviral activity against HIV1 NL4-3 infected in human MT2 cells or CEMx174 5.25 M7 cells in absence of hCS6ERE to EC50 for antiviral activity against HIV1 NL4-3 infected in human MT2 cells or CEMx174 5.25 M7 cells at 5:1 hCS6ERE to compound ratio", "type": "functional"}, "[19]": {"test_system": "Human immunodeficiency virus 1", "assay": "as §3, with “hCS6ERE” for “HP23”, “6:1 ratio of hCS6ERE to” for “24:1”, “compound” for “compound to HP23 ratio”", "type": "functional, HIV-1 group M"}, "[20]": {"test_system": "Human immunodeficiency virus 1", "assay": "Antiviral activity against T20 resistant HIV1 NL4-3 harboring with V38E/N42T mutant infected in human MT2 cells or CEMx174 5.25 M7 cells assessed as reduction in p24 Gag protein production at 150:1 hCS6ERE to compound ratio measured at 4 days post-infection by ELISA", "type": "functional, organism-based"}}, "note": "Starred links: 1 amine or outer side, 2 acyl side, 3 side chain; linkers in the order of their positions; H or OH if unused. Positions of bridges follow the written chain, without caps; N, C: chain ends. Non-standard residues stand in square brackets, D forms with d. Residues, ends and D or L forms follow the SMILES beside them. ξ: configuration not given here. mXylylene = c1cc(C[*:1])cc(C[*:2])c1; ξhCys = NC(CCS)C(=O)O"}
{"molecule": "CC[C@H](C)[C@H](NC(C)=O)C(=O)N[C@@H](CCC(=O)O)C(=O)N[C@@H](CCC(=O)O)C(=O)N[C@@H](CC(C)C)C(=O)N[C@H](C(=O)NC1CCSCc2cccc(c2)CSCCC(C(=O)N[C@@H](CCC(N)=O)C(=O)N[C@@H](CCC(N)=O)C(=O)N[C@@H](CCCNC(=N)N)C(=O)N[C@@H](CCCCN)C(=O)N[C@@H](CC(N)=O)C(=O)N[C@@H](CCC(=O)O)C(=O)N[C@@H](CCC(=O)O)C(=O)N[C@@H](C)C(=O)N[C@@H](CC(C)C)C(=O)N[C@@H](CCCNC(=N)N)C(=O)N[C@@H](CCC(=O)O)C(=O)N[C@@H](CC(C)C)C(N)=O)NC(=O)[C@H](CCC(N)=O)NC(=O)[C@H](C)NC(=O)[C@H](C)NC1=O)[C@@H](C)CC", "note": "(stereo not given in full) (Ac-IEELI[ξhCys]AAQ[ξhCys]QQRKNEEALREL-NH2; linker 6-10 via mXylylene)", "values": [{"measurement": "Ratio EC50", "setting": "[1]", "result": 5}, {"measurement": "remaining at 4 h", "setting": "[2]", "result": 15.8, "unit": "%"}, {"measurement": "CI", "setting": "[3]", "result": 0.9}, {"measurement": "EC50", "setting": "[4]", "result": 26.3, "unit": "nM"}, {"measurement": "EC50", "setting": "[5]", "result": 14, "unit": "nM"}, {"measurement": "remaining at 2 h, up to 100 µM", "setting": "[6]", "result": 27.4, "unit": "%"}, {"measurement": "Ratio EC50", "setting": "[7]", "result": 2.6}, {"measurement": "EC50", "setting": "[8]", "result": 11.1, "unit": "nM"}, {"measurement": "EC50", "setting": "[9]", "result": 2040, "unit": "nM"}, {"measurement": "Ratio EC50", "setting": "[10]", "result": 3.8}, {"measurement": "Ratio EC50", "setting": "[11]", "result": 3.6}, {"measurement": "CI", "setting": "[12]", "result": 0.7}, {"measurement": "Ratio EC50", "setting": "[13]", "result": 2.2}, {"measurement": "CI", "setting": "[14]", "result": 0.6}, {"measurement": "Ratio EC50", "setting": "[15]", "result": 2.6}]}
{"molecule": "H-EMTWEEWEKKIEEYTKKIEEILK-OH", "values": [{"measurement": "EC50", "setting": "[16]", "result": 0.2, "unit": "nM"}, {"measurement": "EC50", "setting": "[17]", "result": 0.9, "unit": "nM"}, {"measurement": "Ratio EC50", "setting": "[18]", "result": 3.8}, {"measurement": "Ratio EC50", "setting": "[19]", "result": 1.9}, {"measurement": "EC50", "setting": "[20]", "result": 2.2, "unit": "nM"}]}
